Experimental data reported in the supplement of paper PMC8612539.
Values after ≈ are worked out from the molar mass of the structure shown.

System: Pasteurella multocida
Assay: minimum inhibitory concentration (MIC)
Procedure: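 Broth microdilution MIC (Sensititre BOPO7F bovine plate, CLSI methods) of 19 antimicrobials against field isolates of P. multocida, M. haemolytica, H. somni (deep nasopharyngeal swabs) and E. coli, Enterococcus spp. (rectal swabs) from weaned dairy heifers. Incubation 16-24 h at 35 C. MIC is the lowest concentration preventing visible growth. Values with <= or > lie at the tested range limits. Trimethoprim-sulfamethoxazole is given as the trimethoprim component of a 1:19 mixture.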

CN[C@@H]1[C@H](O)[C@H](NC)[C@H]2O[C@@]3(O)C(=O)C[C@@H](C)O[C@H]3O[C@@H]2[C@H]1O [Spectinomycin]
Settings | minimum inhibitory concentration [µg/mL]
isolate (source animal id): 10 | 32 (≈ 96.3 µM)
isolate (source animal id): 11 | 32 (≈ 96.3 µM)
isolate (source animal id): 12 | 32 (≈ 96.3 µM)
isolate (source animal id): 19 | 32 (≈ 96.3 µM)
isolate (source animal id): 23 | 32 (≈ 96.3 µM)
isolate (source animal id): 26 | 32 (≈ 96.3 µM)
isolate (source animal id): 98 | 32 (≈ 96.3 µM)
isolate (source animal id): 104 | ≤ 8
isolate (source animal id): 115 | > 64
isolate (source animal id): 117 | 32 (≈ 96.3 µM)
isolate (source animal id): 118 | 32 (≈ 96.3 µM)
isolate (source animal id): 121 | > 64
isolate (source animal id): 124 | 32 (≈ 96.3 µM)
isolate (source animal id): 125 | 32 (≈ 96.3 µM)
isolate (source animal id): 128 | > 64
isolate (source animal id): 131 | > 64
isolate (source animal id): 135 | > 64
isolate (source animal id): 136 | > 64
isolate (source animal id): 140 | 16 (≈ 48.1 µM)
isolate (source animal id): 144 | 32 (≈ 96.3 µM)
isolate (source animal id): 146 | 32 (≈ 96.3 µM)
isolate (source animal id): 150 | > 64
isolate (source animal id): 151 | > 64
isolate (source animal id): 153 | 16 (≈ 48.1 µM)
isolate (source animal id): 155 | 32 (≈ 96.3 µM)
isolate (source animal id): 157 | 16 (≈ 48.1 µM)
isolate (source animal id): 160 | > 64
isolate (source animal id): 164 | > 64
isolate (source animal id): 165 | > 64
isolate (source animal id): 167 | > 64
isolate (source animal id): 168 | 32 (≈ 96.3 µM)
isolate (source animal id): 169 | 32 (≈ 96.3 µM)
isolate (source animal id): 170 | 32 (≈ 96.3 µM)
isolate (source animal id): 171 | 32 (≈ 96.3 µM)
isolate (source animal id): 172 | > 64
isolate (source animal id): 173 | 32 (≈ 96.3 µM)
isolate (source animal id): 174 | > 64
isolate (source animal id): 175 | > 64
isolate (source animal id): 176 | > 64
isolate (source animal id): 177 | > 64
isolate (source animal id): 178 | > 64
isolate (source animal id): 179 | 32 (≈ 96.3 µM)
isolate (source animal id): 182 | > 64
isolate (source animal id): 192 | > 64
isolate (source animal id): 193 | > 64
isolate (source animal id): 195 | > 64
isolate (source animal id): 196 | > 64
isolate (source animal id): 197 | > 64
isolate (source animal id): 198 | 32 (≈ 96.3 µM)
isolate (source animal id): 199 | 32 (≈ 96.3 µM)
isolate (source animal id): 200 | 32 (≈ 96.3 µM)
isolate (source animal id): 201 | > 64
isolate (source animal id): 203 | > 64
isolate (source animal id): 204 | > 64
isolate (source animal id): 205 | 32 (≈ 96.3 µM)
isolate (source animal id): 206 | > 64
isolate (source animal id): 207 | > 64
isolate (source animal id): 208 | 32 (≈ 96.3 µM)
isolate (source animal id): 209 | > 64
isolate (source animal id): 210 | 32 (≈ 96.3 µM)
isolate (source animal id): 213 | 32 (≈ 96.3 µM)
isolate (source animal id): 216 | > 64
isolate (source animal id): 223 | 32 (≈ 96.3 µM)
isolate (source animal id): 227 | > 64
isolate (source animal id): 229 | 32 (≈ 96.3 µM)
isolate (source animal id): 233 | 32 (≈ 96.3 µM)
isolate (source animal id): 234 | 32 (≈ 96.3 µM)
isolate (source animal id): 237 | 32 (≈ 96.3 µM)
isolate (source animal id): 241 | 16 (≈ 48.1 µM)
isolate (source animal id): 245 | 32 (≈ 96.3 µM)
isolate (source animal id): 247 | 32 (≈ 96.3 µM)
isolate (source animal id): 250 | 16 (≈ 48.1 µM)
isolate (source animal id): 254 | 32 (≈ 96.3 µM)
isolate (source animal id): 255 | 32 (≈ 96.3 µM)
isolate (source animal id): 258 | > 64
isolate (source animal id): 261 | 32 (≈ 96.3 µM)
isolate (source animal id): 262 | 32 (≈ 96.3 µM)
